≈ marks a conversion by molar mass, not a printed value.
Legend:
[1] = Inhibition of Escherichia coli primase by scintillation proximity assay
Escherichia coli = experiment: Antibacterial activity against Escherichia coli; format: functional

Row | IC50 [1] | MIC (Escherichia coli) | Structure (SMILES)
1 | 27.3 µM | > 64 µg/mL | CCN1CCN(c2nc(-c3ccncc3)nc3ccccc23)CC1
2 | 103 µM | 8 µg/mL (≈ 19.2 µM) | CCCCc1nc2sc3c(NCCN(C)C)nc(SC)nc3c2c2c1CCC2
3 | 44.7 µM | > 64 µg/mL | CN(C)CCNc1cc(-c2ccncc2)nc(-c2ccccn2)n1
4 | 61 µM | 16 µg/mL (≈ 43.3 µM) | CC(C)c1nc2sc3c(NCCN(C)C)ncnc3c2c2c1CCCC2
5 | 99.5 µM | 64 µg/mL (≈ 179 µM) | Cc1ccc(-c2cn3c4ccccc4n(CCN4CCCCC4)c3n2)cc1
6 | 22 µM | 4 µg/mL (≈ 9.62 µM) | CSc1nc(NCCN(C)C)c2sc3nc(CC(C)C)c4c(c3c2n1)CCC4
7 | > 200 µM | > 64 µg/mL | CN1CCN(c2nc(-c3ccc(Cl)cc3)nc3c2oc2ccccc23)CC1
8 | 18.4 µM | 64 µg/mL (≈ 186 µM) | c1ccc(-c2cn3c4ccccc4n(CCN4CCCCC4)c3n2)cc1
9 | 3.4 µM | 4 µg/mL (≈ 12 µM) | CN(C)CCOc1nc(-c2ccccc2)nc2c1oc1ccccc12
10 | 7.2 µM | > 64 µg/mL | CN1CCN(c2nc(-c3ccccc3O)nc3ccccc23)CC1
11 | 85.1 µM | 64 µg/mL (≈ 239 µM) | CN1CCN(c2ncnc3c2oc2ccccc23)CC1
12 | 122 µM | > 64 µg/mL | c1ccc2c(c1)oc1c(N3CCN(C4CCCC4)CC3)ncnc12
13 | 162 µM | > 64 µg/mL | COc1ccc(-c2cn3c4ccccc4n(CCN4CCCCC4)c3n2)cc1
14 | 79.2 µM | > 64 µg/mL | CSc1nc(NCCN(C)C)c2sc3nc(CC(C)C)c4c(c3c2n1)CC(C)(C)OC4
15 | 26.6 µM | 8 µg/mL (≈ 19.9 µM) | CSc1nc(NCCN(C)C)c2sc3nc(C(C)C)c4c(c3c2n1)CCC4
16 | 16.9 µM | 32 µg/mL (≈ 71.8 µM) | CCN(CC)CCNc1nc(SC)nc2c1sc1nc(C)c3c(c12)CC(C)(C)OC3
17 | > 200 µM | > 64 µg/mL | CSc1nc(NCCN2CCOCC2)c2sc3nc(C(C)C)c4c(c3c2n1)CCC4
18 | 32.3 µM | 64 µg/mL (≈ 183 µM) | c1csc(-c2cn3c4ccccc4n(CCN4CCCCC4)c3n2)c1
19 | 138 µM | 64 µg/mL (≈ 215 µM) | OCCN1CCN(c2ncnc3c2oc2ccccc23)CC1
20 | > 200 µM | > 64 µg/mL | CCN1CCN(c2nc(SC)nc3c2sc2nc(C(C)C)c4c(c23)CCC4)CC1
21 | 36 µM | > 64 µg/mL | CCN(CC)CCNc1nc(SC)nc2c1sc1nc(C(C)C)c3c(c12)CCC3
22 | 45 µM | 64 µg/mL (≈ 124 µM) | CCN(CC)CCNc1nc(SC)nc2c1sc1nc(N3CCOCC3)c3c(c12)CC(C)(C)OC3
23 | 42.5 µM | > 64 µg/mL | CN1CCN(c2nc(-c3ccccc3)nc3c2oc2ccccc23)CC1
24 | 170 µM | > 64 µg/mL | CCc1nc(N2CCN(CC)CC2)c2oc3ccccc3c2n1
25 | 50.5 µM | > 64 µg/mL | CN1CCN(c2nc(Nc3cccc(O)c3)nc3ccccc23)CC1

— ChEMBL document CHEMBL1147896, “Small molecule inhibitors of E. coli primase, a novel bacterial target” (Bioorg Med Chem Lett, 2007)
